Experimental data from PMC9065177, “Polymer chimera of stapled oncolytic peptide coupled with anti-PD-L1 peptide boosts immunotherapy of colorectal cancer” (Theranostics, 2022).
Positions of bridges follow the written chain, without caps; N, C: chain ends. Non-standard residues stand in square brackets, D forms with d. Residues, ends and D or L forms follow the SMILES beside them. S5 = C=CCCC[C@](C)(N)C(=O)O

Tests used:
red blood cells (RBC) = test: Hemolysis assay (hemoglobin release from erythrocytes); assay type: cell-based, mice
Procedure: The hemolytic activities of the peptides and peptide-polymer conjugates were evaluated by determining hemoglobin release from suspensions of mice blood. Fresh erythrocytes were obtained from the whole blood by centrifuging at 4 ℃ 1000 g for 30 min and washing with PBS 2 times. Then erythrocytes were diluted with PBS at the volume ration of 1:10. The 96-well plate was added to 100 μL erythrocyte suspension per well and incubated with peptides and conjugates solution with different concentrations for 1 h at 37 ℃, following centrifuged at 1000 rpm for 10 min. The supernatants were obtained and monitored by measuring absorbance at 570 nm (BioTek Cytation 5, USA) as previously described. 0.1% (v/v) Triton X-100 was used as a positive control and PBS was used as a negative control.

[1] = Proteolytic stability in α-chymotrypsin solution; assay type: in vitro ADME; conditions: α-chymotrypsin solution, pH 7.4; after 1 h exposure to α-chymotrypsin; read-out: peptide remaining intact
Procedure: (§1) The peptides were dissolved in H2O to a final concentration at 2 mM, respectively. α-Chymotrypsin was dissolved in PBS (0.5 ng/μL, containing 2 mM CaCl2, pH 7.4). Then, the peptide solutions (50 μL) were incubated with α-chymotrypsin solution (950 μL) at 37 ℃. 100 μL of digestion mixture was taken at the different time and then quenched with 20 μL of hydrochloric acid (1 M). The percent residual peptide was monitored by HPLC at 214 nm. Each experiment was performed in triplicate.

α-Chymotrypsin = α-Chymotrypsin (Bos taurus, UniProt P00766); test: Proteolytic stability in α-chymotrypsin solution; assay type: in vitro ADME
Procedure: as §1

For `CC[C@H](C)[C@H](NC(C)=O)C(=O)N[C@@H](CC(N)=O)C(=O)N[C@@H](CC(C)C)C(=O)N[C@@H](CCCCN)C(=O)N[C@@H](C)C(=O)N[C@@H](CC(C)C)C(=O)N[C@@H](C)C(=O)N[C@@H](C)C(=O)N[C@@]1(C)CCCC=CCCC[C@@](C)(C(=O)N[C@@H](CC(C)C)C(N)=O)NC(=O)[C@H](CCCCN)NC(=O)[C@H](CCCCN)NC(=O)[C@H](C)NC1=O` [MP9] (Ac-INLKALAA[S5]AKK[S5]L-NH2; staple 9-13), the “RBC hemolytic activity (in words)” value (red blood cells (RBC)) was “lowest level of RBC hemolysis”, the remaining at 1 h, 0.1 mM [1] was over 87% and the half-life (α-Chymotrypsin; 0.5 ng/μL α-chymotrypsin, pH 7.4, 37 ℃, read-out: T1/2 in α-chymotrypsin solution (converted)) was 5.27 h. The “fold increase in half-life (T1/2) versus MP” value (α-Chymotrypsin; α-chymotrypsin) was 12.55 fold.
